Test results published in US8450313B2, “2,3-diaryl- or heteroaryl-substituted 1,1,1-trifluoro-2-hydroxypropyl compounds” (Hoffmann-La Roche Inc., priority 2009, dated 2013).

Target: T1, full length human recombinant glucocorticoid receptor (Homo sapiens, UniProt P04150)
T1 construct: It contains some partially purified full length human recombinant glucocorticoid receptor; purchased Panvera/Invitrogen PV4302
T1 sequence (P04150 1-777): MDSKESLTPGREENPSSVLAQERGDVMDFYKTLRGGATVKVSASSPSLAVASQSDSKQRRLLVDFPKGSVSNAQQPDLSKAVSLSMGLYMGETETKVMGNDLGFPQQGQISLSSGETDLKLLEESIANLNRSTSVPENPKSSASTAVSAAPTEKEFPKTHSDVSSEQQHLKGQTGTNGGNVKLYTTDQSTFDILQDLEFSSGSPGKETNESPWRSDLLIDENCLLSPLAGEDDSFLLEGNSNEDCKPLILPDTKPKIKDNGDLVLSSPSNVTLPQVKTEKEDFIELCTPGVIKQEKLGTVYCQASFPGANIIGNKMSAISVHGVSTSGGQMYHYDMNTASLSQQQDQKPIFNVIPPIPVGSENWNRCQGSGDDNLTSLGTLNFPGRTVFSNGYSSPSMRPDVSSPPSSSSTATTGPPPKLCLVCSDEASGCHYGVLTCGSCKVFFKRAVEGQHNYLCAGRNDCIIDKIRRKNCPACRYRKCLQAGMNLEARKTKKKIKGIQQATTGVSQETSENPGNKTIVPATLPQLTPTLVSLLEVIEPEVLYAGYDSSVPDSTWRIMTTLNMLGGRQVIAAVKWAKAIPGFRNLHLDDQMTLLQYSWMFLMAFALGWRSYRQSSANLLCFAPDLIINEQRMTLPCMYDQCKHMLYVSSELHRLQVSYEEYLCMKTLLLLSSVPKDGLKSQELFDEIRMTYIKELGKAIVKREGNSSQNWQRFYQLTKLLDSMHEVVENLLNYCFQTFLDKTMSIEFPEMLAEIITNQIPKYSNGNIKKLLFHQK
Assay: Glucocorticoid Receptor Binding Assay (Glucocorticoid Receptor Competitor Assay far red kit, fluorescence polarization)
Details: competition with fluorescent GR ligand Fluormone GS Far Red, 3 hours at 22° C., pH 7.4; Ki calculated from IC50 by Cheng-Prusoff
How it was run: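 Compounds in serial dilution (from intermediate 4.2% DMSO stock) displace Fluormone GS Far Red from full-length human recombinant GR with stabilizing peptide, pH 7.4, incubated 3 hours at 22° C dark. Polarized fluorescence (610–660 nm) gives IC50 via sigmoidal fit, converted to Ki by Cheng-Prusoff.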

SMILES | Ki [nM]
C[C@H](c1ccc(-c2ccc(CC(=O)O)cc2)cc1Cl)[C@@](O)(c1ccc2c(c1)n(C)c(=O)n2C)C(F)(F)F (stereo in doubt) [Example 82, {3′-Chloro-4′-[2-(1,3-dimethyl-2-oxo-2,3-dihydro-1H-benzoimidazol-5-yl)-3,3,3-trifluoro-2-hydroxy-1-methyl-propyl]-biphenyl-4-yl}-acetic acid] | 7
C[C@@H](c1ccc(Oc2ccc(CC(=O)O)cc2)cc1Cl)[C@](O)(c1ccc2c(c1)n(C)c(=O)n2C)C(F)(F)F (stereo in doubt) [Example 89, (4-{3-Chloro-4-[2-(1,3-dimethyl-2-oxo-2,3-dihydro-1H-benzoimidazol-5-yl)-3,3,3-trifluoro-2-hydroxy-1-methyl-propyl]-phenoxy}-phenyl)-acetic acid] | 1.1
C[C@@H](c1ccc(Oc2ccc(C(=O)O)c(Cl)c2)cc1Cl)[C@](O)(c1ccc2c(c1)n(C)c(=O)n2C)C(F)(F)F (stereo in doubt) [Example 90, 2-Chloro-4-{3-chloro-4-[2-(1,3-dimethyl-2-oxo-2,3-dihydro-1H-benzoimidazol-5-yl)-3,3,3-trifluoro-2-hydroxy-1-methyl-propyl]-phenoxy}-benzoic acid] | 0.4
C[C@H](c1ccc(Oc2ccc(C(=O)O)c(Cl)n2)cc1Cl)[C@@](O)(c1ccc2c(c1)n(C)c(=O)n2C)C(F)(F)F (stereo in doubt) [Example 92, 2-Chloro-6-{3-chloro-4-[2-(1,3-dimethyl-2-oxo-2,3-dihydro-1H-benzoimidazol-5-yl)-3,3,3-trifluoro-2-hydroxy-1-methyl-propyl]-phenoxy}-nicotinic acid] | 0.6
C[C@H](c1ccc(Oc2ccc(OCC(=O)O)cc2)cc1Cl)[C@@](O)(c1ccc2c(c1)n(C)c(=O)n2C)C(F)(F)F (stereo in doubt) [Example 93, (4-{3-Chloro-4-[2-(1,3-dimethyl-2-oxo-2,3-dihydro-1H-benzoimidazol-5-yl)-3,3,3-trifluoro-2-hydroxy-1-methyl-propyl]-phenoxy}-phenoxy)-acetic acid] | 0.3
C[C@H](c1ccc(Oc2cccc(OCC(=O)O)c2)cc1Cl)[C@@](O)(c1ccc2c(c1)n(C)c(=O)n2C)C(F)(F)F (stereo in doubt) [Example 94, (3-{3-Chloro-4-[2-(1,3-dimethyl-2-oxo-2,3-dihydro-1H-benzoimidazol-5-yl)-3,3,3-trifluoro-2-hydroxy-1-methyl-propyl]-phenoxy}-phenoxy)-acetic acid] | 0.3
C[C@@H](c1ccc(Oc2ccc(C(=O)O)cn2)cc1Cl)[C@](O)(c1ccc2c(c1)n(C)c(=O)n2C)C(F)(F)F (stereo in doubt) [Example 101, 6-{3-Chloro-4-[2-(1,3-dimethyl-2-oxo-2,3-dihydro-1H-benzoimidazol-5-yl)-3,3,3-trifluoro-2-hydroxy-1-methyl-propyl]-phenoxy}-nicotinic acid] | 1.1
C[C@H](c1ccc(Oc2ncccc2C(=O)O)cc1Cl)[C@@](O)(c1ccc2c(c1)n(C)c(=O)n2C)C(F)(F)F (stereo in doubt) [Example 105, 2-{3-Chloro-4-[2-(1,3-dimethyl-2-oxo-2,3-dihydro-1H-benzoimidazol-5-yl)-3,3,3-trifluoro-2-hydroxy-1-methyl-propyl]-phenoxy}-nicotinic acid] | 14.8
C[C@H](c1ccc(Oc2cc(Cl)ncc2C(=O)O)cc1Cl)[C@@](O)(c1ccc2c(c1)n(C)c(=O)n2C)C(F)(F)F (stereo in doubt) [Example 108, 6-Chloro-4-{3-chloro-4-[2-(1,3-dimethyl-2-oxo-2,3-dihydro-1H-benzoimidazol-5-yl)-3,3,3-trifluoro-2-hydroxy-1-methyl-propyl]-phenoxy}-nicotinic acid] | 10.4
C[C@H](c1ccc(Oc2cc(Cl)c(C(=O)O)cn2)cc1Cl)[C@@](O)(c1ccc2c(c1)n(C)c(=O)n2C)C(F)(F)F (stereo in doubt) [Example 109, 4-Chloro-6-{3-chloro-4-[2-(1,3-dimethyl-2-oxo-2,3-dihydro-1H-benzoimidazol-5-yl)-3,3,3-trifluoro-2-hydroxy-1-methyl-propyl]-phenoxy}-nicotinic acid] | 1.1
C[C@H](c1ccc(Oc2ccc(C(F)(F)F)c(C(=O)O)n2)cc1Cl)[C@@](O)(c1ccc2c(c1)n(C)c(=O)n2C)C(F)(F)F (stereo in doubt) [Example 112, 6-{3-Chloro-4-[2-(1,3-dimethyl-2-oxo-2,3-dihydro-1H-benzoimidazol-5-yl)-3,3,3-trifluoro-2-hydroxy-1-methyl-propyl]-phenoxy}-3-trifluoromethyl-pyridine-2-carboxylic acid] | 26.4

Other lines, results leading:

Ki [nM] | SMILES
2.2 | C[C@H](c1ccc(-c2cccc(CC(=O)O)c2)cc1Cl)[C@@](O)(c1ccc2c(c1)n(C)c(=O)n2C)C(F)(F)F (stereo in doubt) [Example 83, {3′-Chloro-4′-[2-(1,3-dimethyl-2-oxo-2,3-dihydro-1H-benzoimidazol-5-yl)-3,3,3-trifluoro-2-hydroxy-1-methyl-propyl]-biphenyl-3-yl}-acetic acid]
0.7 | C[C@@H](c1ccc(Oc2ccc(C(=O)O)c(F)c2)cc1Cl)[C@](O)(c1ccc2c(c1)n(C)c(=O)n2C)C(F)(F)F (stereo in doubt) [Example 88, 4-{3-Chloro-4-[2-(1,3-dimethyl-2-oxo-2,3-dihydro-1H-benzoimidazol-5-yl)-3,3,3-trifluoro-2-hydroxy-1-methyl-propyl]-phenoxy}-2-fluoro-benzoic acid]
5.3 | C[C@H](c1ccc(Oc2ccc(C(=O)O)nc2)cc1Cl)[C@@](O)(c1ccc2c(c1)n(C)c(=O)n2C)C(F)(F)F (stereo in doubt) [Example 95, 5-{3-Chloro-4-[2-(1,3-dimethyl-2-oxo-2,3-dihydro-1H-benzoimidazol-5-yl)-3,3,3-trifluoro-2-hydroxy-1-methyl-propyl]-phenoxy}-pyridine-2-carboxylic acid]
1.9 | C[C@H](c1ccc(Oc2ccc(Cl)cc2C(=O)O)cc1Cl)[C@@](O)(c1ccc2c(c1)n(C)c(=O)n2C)C(F)(F)F (stereo in doubt) [Example 100, 5-Chloro-2-{3-chloro-4-[2-(1,3-dimethyl-2-oxo-2,3-dihydro-1H-benzoimidazol-5-yl)-3,3,3-trifluoro-2-hydroxy-1-methyl-propyl]-phenoxy}-benzoic acid]
1.6 | C[C@H](c1ccc(Oc2ncc(Cl)cc2C(=O)O)cc1Cl)[C@@](O)(c1ccc2c(c1)n(C)c(=O)n2C)C(F)(F)F (stereo in doubt) [Example 104, 5-Chloro-2-{3-chloro-4-[2-(1,3-dimethyl-2-oxo-2,3-dihydro-1H-benzoimidazol-5-yl)-3,3,3-trifluoro-2-hydroxy-1-methyl-propyl]-phenoxy}-nicotinic acid]
0.4 | C[C@H](c1ccc(Oc2ncc(C(=O)O)cc2Cl)cc1Cl)[C@@](O)(c1ccc2c(c1)n(C)c(=O)n2C)C(F)(F)F (stereo in doubt) [Example 107, 5-Chloro-6-{3-chloro-4-[2-(1,3-dimethyl-2-oxo-2,3-dihydro-1H-benzoimidazol-5-yl)-3,3,3-trifluoro-2-hydroxy-1-methyl-propyl]-phenoxy}-nicotinic acid]
2.1 | C[C@H](c1ccc(Oc2cc(C(=O)O)c(C(F)(F)F)cn2)cc1Cl)[C@@](O)(c1ccc2c(c1)n(C)c(=O)n2C)C(F)(F)F (stereo in doubt) [Example 110, 2-{3-Chloro-4-[2-(1,3-dimethyl-2-oxo-2,3-dihydro-1H-benzoimidazol-5-yl)-3,3,3-trifluoro-2-hydroxy-1-methyl-propyl]-phenoxy}-5-trifluoromethyl-isonicotinic acid]
36 | C[C@H](c1ccc(Oc2nc(C(F)(F)F)ccc2C(=O)O)cc1Cl)[C@@](O)(c1ccc2c(c1)n(C)c(=O)n2C)C(F)(F)F (stereo in doubt) [Example 111, 2-{3-Chloro-4-[2-(1,3-dimethyl-2-oxo-2,3-dihydro-1H-benzoimidazol-5-yl)-3,3,3-trifluoro-2-hydroxy-1-methyl-propyl]-phenoxy}-6-trifluoromethyl-nicotinic acid]
6.2 | C[C@H](c1ccc(Oc2c(C(=O)O)ccnc2Cl)cc1Cl)[C@@](O)(c1ccc2c(c1)n(C)c(=O)n2C)C(F)(F)F (stereo in doubt) [Example 113, 2-Chloro-3-{3-chloro-4-[2-(1,3-dimethyl-2-oxo-2,3-dihydro-1H-benzoimidazol-5-yl)-3,3,3-trifluoro-2-hydroxy-1-methyl-propyl]-phenoxy}-isonicotinic acid]
1.1 | C[C@@H](c1ccc(Oc2ccc(C(=O)O)c(C(F)(F)F)n2)cc1Cl)[C@](O)(c1ccc2c(c1)n(C)c(=O)n2C)C(F)(F)F (stereo in doubt) [Example 115, 6-{3-Chloro-4-[2-(1,3-dimethyl-2-oxo-2,3-dihydro-1H-benzoimidazol-5-yl)-3,3,3-trifluoro-2-hydroxy-1-methyl-propyl]-phenoxy}-2-trifluoromethyl-nicotinic acid]
